In this experiment the test system is Influenza Ann Arbor virus. Kind of experiment: Chemoprophylaxis of Influenza Ann Arbor (A1) virus infection in mice. The experiment is classed as in vivo, mouse. The following applies: oral.

Each structure is given as a SMILES string.

For the compound `CCCC(C)=NNC(N)=S` [2-pentanone, thiosemicarbazone], the “No. animals surviving after 6 days” value (total dose 30 pg) worked out at 2; the “No. animals surviving after 6 days” value (total dose 300 pg) was found to be 2; the “No. animals surviving after 6 days” value (total dose 3 ng) is 2; the “No. animals surviving after 6 days” value (total dose 30 ng) worked out at 2; the “No. animals surviving after 6 days” value (total dose 300 ng) is given as 1; the “No. animals surviving after 6 days” value (total dose 3 μg) is 1. The “No. animals surviving after 6 days” value by setting is: (total dose 30 μg) 1; (total dose 300 μg) 0. Moreover, the Survivors is, setting by setting: (total dose 30 pg) 0; (total dose 300 pg) 0; (total dose 3 ng) 0; (total dose 15 ng) 0; (total dose 22.5 ng) 0; (total dose 30 ng) 0. Also, the Survivors is, setting by setting: (total dose 75 ng) 0; (total dose 150 ng) 0; (total dose 225 ng) 0; (total dose 300 ng) 0; (total dose 750 ng) 0; (total dose 1.5 μg) 0. In addition, the Survivors worked out at 1 (total dose 2.25 μg), 0 (total dose 3 μg), 1 (total dose 30 μg) and 0 (total dose 300 μg). For the same compound, the “No. animals surviving after 7 days” value runs as follows: (total dose 15 ng) 3; (total dose 22.5 ng) 0; (total dose 75 ng) 1; (total dose 150 ng) 0; (total dose 225 ng) 3; (total dose 750 ng) 2. Also, the “No. animals surviving after 7 days” value by setting is: (total dose 1.5 μg) 2; (total dose 2.25 μg) 1.

On to `Cc1ccccc1NC(=S)NN=C1CCCC1` [cyclopentanone, 3-thio-4-o-tolylsemicarbazone], for which the “No. animals surviving after 5 days” value (total dose 30 pg) is on record as 6; the “No. animals surviving after 5 days” value (total dose 300 pg) came to 9; the “No. animals surviving after 5 days” value (total dose 3 ng) came to 9; the “No. animals surviving after 5 days” value (total dose 30 ng) is 9; the “No. animals surviving after 5 days” value (total dose 300 ng) is 6; the “No. animals surviving after 5 days” value (total dose 3 μg) was determined as 6. For the same compound, the “No. animals surviving after 5 days” value by setting is: (total dose 300 μg) 9; (total dose 3 mg) 8. Also, the Survivors is given as 0 (total dose 30 pg); 0 (total dose 300 pg); 0 (total dose 3 ng); 0 (total dose 300 ng); 0 (total dose 3 μg); 0 (total dose 30 μg). Moreover, the Survivors is recorded as 0 (total dose 300 μg) and 0 (total dose 3 mg).

Regarding `CN(C)N` [1,1-dimethylhydrazine], the “No. animals surviving after 6 days” value stood at 5 (total dose 30 pg); 3 (total dose 300 pg); 3 (total dose 3 ng); 2 (total dose 30 ng); 3 (total dose 300 ng); 2 (total dose 3 μg). The “No. animals surviving after 6 days” value (total dose 30 μg) worked out at 1, the “No. animals surviving after 6 days” value (total dose 300 μg) was 3 and the “No. animals surviving after 6 days” value (total dose 3 mg) is 2. Further, the Survivors runs as follows: (total dose 30 pg) 0; (total dose 300 pg) 0; (total dose 3 ng) 1; (total dose 30 ng) 0; (total dose 300 ng) 0; (total dose 3 μg) 0. For the same compound, the Survivors is 1 (total dose 30 μg), 0 (total dose 300 μg) and 0 (total dose 3 mg).

Values taken from US4032659A (priority 1975, dated 1977).
